Measured values as given in US9012223B2, “Methods for enhancing genome stability and telomere elongation in embryonic stem cells” (The United States of America, as represented by the …, priority 2009, dated 2015).

Legend:
[1] = tested on: MC1-ZE7 cells; test: Effect of retinoids on ES cell proliferation; type: cell-based, mouse; conditions: atRA, 9-cis RA, 13-cis RA 50 nM, vitamin A 5 μM; up to 7 days
Description: (§1) FIG. 10A is a line graph showing the effect of different retinoids (atRA, 9-cis RA, 13-cis RA or vitamin A) on the percentage of Zscan4^+ cells in culture. Shown is the percentage of Emerald^+ MC1-ZE-7 cells up to seven days following exposure to the retinoid. FIG. 10B is a line graph showing the effect of the different reintoids on ES cell proliferation.
(§2) Although atRA is most commonly used for mammalian cell culture systems, there are other retinoids that sometimes have similar activities on the cells. To test other retinoids for Zscan4-inducibility, similar time-course kinetic assays were carried out using atRA (50 nM final concentration), 9-cis RA (50 nM final concentration), 13-cis RA (50 nM final concentration), or vitamin A (5 μM final concentration). […] Zscan4^+ cells may have growth advantages over Zscan4^− cells in the presence of vitamin A and 13-cis RA.

[2] = tested on: Zscan4; test: Time-course of Emerald GFP+ (Zscan4+) cells by flow cytometry after retinoid treatment; type: cell-based, mouse; conditions: for day of peak of fraction of Zscan4+ cells / fraction of Zscan4+ cells / secondary increase of Zscan4+ cells: atRA, 9-cis RA, 13-cis RA 50 nM; for day of peak of fraction of Zscan4+ cells / secondary increase of Zscan4+ cells: vitamin A 5 μM; for fraction of Zscan4+ cells: vitamin A 5 μM final concentration, up to 7 days; for secondary increase of Zscan4+ cells: within 7 days of treatment
Description: FIG. 9 is a line graph showing the percentage of Emerald cells following treatment of MC1-ZE7 cells in the presence or absence of leukemia inhibitory factor (LIF) and in the presence or absence of retinoic acid (RA). Cells were passaged to gelatin-coated plates in the presence of LIF (LIF+) and absence of atRA (atRA−). The next day (Day 0), the culture medium of each well was changed to four different conditions: LIF+ atRA−, LIF+ atRA+, LIF− atRA−, and LIF− atRA+. The cells were maintained in the same culture medium for 8 days with the medium changes every day, but without passaging. Cells were harvested every day and the number of Emerald GFP^+ cells was measured by flow cytometry.
as §1
A 20 mM stock solution of all-trans retinoic acid (atRA) in ethanol was used at a final concentration of 1 μM, 2 μM, or 50 nM. 9-cis RA and 13-cis RA were used at a final concentration of […] final. Vitamin A (retinol) was used at a final concentration of 5 μM.
Zscan4 Expression is Induced Transiently by all-Trans Retinoic Acid (atRA) Mouse ES cells (referred to as pZscan4-Emerald7 (MC1-ZE7) cells) in which a plasmid carrying a green fluorescent protein (Emerald: Em) regulated under the promoter of Zscan4c is integrated in the genome were used in these studies. […] Cells were first passaged to gelatin-coated plates in the presence of leukemia inhibitory factor (LIF+) and absence of atRA (atRA−). The next day (Day 0), the culture medium of each well was changed to four different conditions: LIF+ atRA−, LIF+ atRA+, LIF− atRA−, and LIF− atRA+. The final concentration of atRA was […]. The cells were maintained in the same culture medium for 8 days with medium changes every day, but without passaging. Cells were harvested every day and the number of Emerald GFP^+ cells was measured by flow cytometry (Guava).
as §2

[3] = tested on: Zscan4; conditions: MC1-ZE7 cells, LIF+; H2O2 100 μM, 300 μM or 1000 μM; two days
Method: MC1-ZE7 cells were cultured in standard ES cell medium (LIF+). […] The cells were cultured for two days and the fraction of Emerald^+ (i.e., Zscan4^+ cells) was measured by flow cytometry.
MC1-ZE7 cells were cultured in standard ES cell medium (LIF+). […] The cells were cultured for two days and the percentage of Em^+ (i.e., Zscan4^+ cells) was determined by the Guava flow cytometry (Guava).

[4] = tested on: ES cells; test: Survival of ES cells after treatment with DNA-damaging agent (live cell count); type: cell-based, mouse; conditions: then 3 more days
Method: FIGS. 12A and 12B are graphs showing survival of control ES cells (A) and tet-Zscan4 ES cells (B) after treatment with mitomycin C (MMC). Control ES cells contained a control plasmid (tet-Empty). Cells were cultured in standard ES medium (LIF+) and passaged into two groups: (1) in the absence of doxycycline (Dox) or (2) in the presence of Dox at a final concentration of 0.2 μg/ml. The Dox+ and Dox− media were changed every day. On the fourth day, the cells were cultured for 6 hours in the presence of MMC at a final concentration ranging from 0 to 600 ng/ml. MMC was removed from the culture by changing the media and cells were then incubated for 3 more days in the Dox+ medium, with the medium changed every day. Cells were harvested and the number of live cells was counted.
Control cells (carrying the tet-Empty plasmid) and Zscan4-expressing cells (carrying the tet-Zscan4 plasmid) were used in this study. The cells were cultured in standard ES medium (LIF+). Cells were passaged into two groups: (1) in the absence of doxycycline (Dox−), or (2) in the presence of doxycycline (Dox+) at a final concentration of 0.2 μg/ml. The Dox+ and Dox− media were changed every day. On the fourth day, the cells were cultured for 6 hours in the presence of MMC at a final concentration ranging from 0 to 600 ng/ml. […] Cells were harvested and the number of live cells was counted.

[5] = MC1-ZE7 cells, atRA 2 M (so in the source), LIF+ and LIF-

| Compound | effect on cell proliferation [1] | day of peak of fraction of Zscan4+ cells ([2]; MC1-ZE7 cells) [days] | fraction of Zscan4+ cells ([2]; MC1-ZE7 cells) | secondary increase of Zscan4+ cells [2] | number (percentage) of Zscan4+ (Em+) cells [3] | survival of Zscan4-expressing (tet-Zscan4) ES cells against the DNA-damaging agent, Dox- versus Dox+ ([4]; Zscan4 induced by Dox removal, agent for 6 hours) | cell survival rate ([4]; control (tet-Empty) ES cells, MMC 0 to 600 ng/ml for 6 hours) | decline of Zscan4+ cell induction to basal level [2, 5] | time of peak of Em+ (Zscan4+) cell fraction [2, 5] | fraction of Em+ cells (i.e., Zscan4+ cells) in the culture ([2]; MC1-ZE7 cells, atRA 2 M (so in the source), LIF+ and LIF- conditions, 8 days, daily harvest) |
| --- | --- | --- | --- | --- | --- | --- | --- | --- | --- | --- |
| CC1=C(/C=C/C(C)=C\C=C\C(C)=C\C(=O)O)C(C)(C)CCC1 [9-cis RA, 9-cis retinoic acid] | nearly complete suppression of cell proliferation | 2 | transiently increased | not | – | – | – | – | – | – |
| CC1=C(/C=C/C(C)=C/C=C/C(C)=C\C(=O)O)C(C)(C)CCC1 [13-cis RA, 13-cis-retinoic acid] | moderate suppression of cell proliferation | 2 | transiently increased | observed | – | – | – | – | – | – |
| OO [H2O2, Hydrogen peroxide] | – | – | – | – | increases the number of Zscan4^+ cells | – | – | – | – | – |
| CO[C@@]12[C@H](COC(N)=O)C3=C(C(=O)C(C)=C(N)C3=O)N1C[C@@H]1N[C@@H]12 [MMC, mitomycin C] | – | – | – | – | – | increased survival | the higher the dose of MMC, the lower the cell survival rate | – | – | – |
| CC1=C(/C=C/C(C)=C/C=C/C(C)=C/C(=O)O)C(C)(C)CCC1 [atRA, all-trans retinoic acid] | nearly complete suppression of cell proliferation | 2 | transiently increased | not | – | – | – | declined to the basal level by the fourth day | peaked on the second day | dramatically induced |
| CC1=C(/C=C/C(C)=C/C=C/C(C)=C/CO)C(C)(C)CCC1 [vitamin A, retinol] | did not affect cell proliferation | 2 | transiently increased | observed | – | – | – | – | – | – |
